Reference: ChEMBL document CHEMBL1201862, “PubChem BioAssay data set” (2004)
Active and inactive are the calls of the source.

Experiments:
[1] = A Cell Based Secondary Assay To Explore Cytotoxicity of Compounds that Sensitize Mycobacterium Tuberculosis to Beta-Lactam Antibiotics.; format: functional
[2] = target: T1, Heat shock factor protein 1 (Mus musculus, UniProt P38532); experiment: inhibition of MG132-induced HSE-luciferase signal, confirmation, cell-based, NIH3T3, luminescence, dose retest (AID 2382); format: functional;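 further: NIH3T3 fibroblasts with HSF1-driven luciferase reporter stressed by proteasome inhibitor MG132; luminescence from HSF1-driven luciferase expression after 8 hours of MG132 stress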
T1 sequence (P38532 whole entry): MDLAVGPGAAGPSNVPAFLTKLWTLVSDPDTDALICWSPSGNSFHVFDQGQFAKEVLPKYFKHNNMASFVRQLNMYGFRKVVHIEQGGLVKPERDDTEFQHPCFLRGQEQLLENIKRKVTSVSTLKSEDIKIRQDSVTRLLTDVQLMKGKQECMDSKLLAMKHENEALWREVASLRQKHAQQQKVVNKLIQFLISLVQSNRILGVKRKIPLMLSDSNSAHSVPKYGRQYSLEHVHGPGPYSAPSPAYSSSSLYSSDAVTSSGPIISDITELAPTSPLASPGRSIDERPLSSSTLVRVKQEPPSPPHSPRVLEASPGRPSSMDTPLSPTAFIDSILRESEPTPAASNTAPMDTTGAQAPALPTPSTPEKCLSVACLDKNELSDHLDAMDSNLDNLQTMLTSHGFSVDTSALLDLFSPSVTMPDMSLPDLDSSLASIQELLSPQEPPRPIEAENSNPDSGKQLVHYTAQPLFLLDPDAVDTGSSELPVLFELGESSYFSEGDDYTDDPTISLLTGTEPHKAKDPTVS

Cytochrome P450 2C9 = Cytochrome P450 2C9 (Homo sapiens, UniProt P11712)
Aminopeptidase N = target: T2, Aminopeptidase N (Plasmodium falciparum FcB1/Columbia, UniProt O96935); experiment: P. falciparum M1AAP inhibitors, biochemical, fluorogenic H-Leu-NHMec substrate, 1536-well (AID 1445); design: species or system Plasmodium falciparum 3D7, 3D7
T2 sequence (O96935 whole entry): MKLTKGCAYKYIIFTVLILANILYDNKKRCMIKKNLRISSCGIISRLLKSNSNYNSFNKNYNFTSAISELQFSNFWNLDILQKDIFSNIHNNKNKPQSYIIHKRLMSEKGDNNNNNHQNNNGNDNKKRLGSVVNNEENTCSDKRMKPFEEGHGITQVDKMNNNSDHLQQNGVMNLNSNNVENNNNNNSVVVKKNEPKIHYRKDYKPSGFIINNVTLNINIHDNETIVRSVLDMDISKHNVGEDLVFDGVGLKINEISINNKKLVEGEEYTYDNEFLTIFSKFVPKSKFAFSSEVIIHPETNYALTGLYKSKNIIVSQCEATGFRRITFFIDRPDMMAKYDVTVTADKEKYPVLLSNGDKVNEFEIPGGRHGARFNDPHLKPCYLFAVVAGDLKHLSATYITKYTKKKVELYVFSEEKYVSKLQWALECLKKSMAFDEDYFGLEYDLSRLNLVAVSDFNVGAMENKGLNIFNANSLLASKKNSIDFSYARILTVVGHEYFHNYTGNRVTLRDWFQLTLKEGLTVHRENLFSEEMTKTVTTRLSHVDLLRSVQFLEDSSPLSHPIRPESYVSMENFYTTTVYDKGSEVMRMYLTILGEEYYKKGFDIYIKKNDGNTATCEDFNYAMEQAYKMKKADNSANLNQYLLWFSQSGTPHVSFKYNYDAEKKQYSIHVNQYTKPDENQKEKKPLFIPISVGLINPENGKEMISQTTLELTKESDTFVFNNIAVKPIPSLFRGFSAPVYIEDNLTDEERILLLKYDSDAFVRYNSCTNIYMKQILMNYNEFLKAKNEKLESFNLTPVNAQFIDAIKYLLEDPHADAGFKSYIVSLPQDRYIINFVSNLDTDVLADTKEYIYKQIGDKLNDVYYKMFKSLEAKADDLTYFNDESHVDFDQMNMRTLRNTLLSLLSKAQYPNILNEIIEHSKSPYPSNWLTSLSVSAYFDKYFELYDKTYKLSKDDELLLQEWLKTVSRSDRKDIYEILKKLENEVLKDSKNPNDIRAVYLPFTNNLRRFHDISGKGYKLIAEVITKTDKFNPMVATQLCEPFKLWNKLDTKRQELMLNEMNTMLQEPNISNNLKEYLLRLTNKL

[3] = target: T3, RNA-binding protein pos-1 (Caenorhabditis elegans, UniProt G5EF15); experiment: inhibitors of POS-1/mex-3 RNA binding, dose response, biochemical, fluorescence polarization (AID 1964);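 further: purified POS-1 fused to maltose binding protein made in E. coli; potency of compounds blocking POS-1 binding to fluorescent RNA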
T3 sequence (G5EF15 whole entry): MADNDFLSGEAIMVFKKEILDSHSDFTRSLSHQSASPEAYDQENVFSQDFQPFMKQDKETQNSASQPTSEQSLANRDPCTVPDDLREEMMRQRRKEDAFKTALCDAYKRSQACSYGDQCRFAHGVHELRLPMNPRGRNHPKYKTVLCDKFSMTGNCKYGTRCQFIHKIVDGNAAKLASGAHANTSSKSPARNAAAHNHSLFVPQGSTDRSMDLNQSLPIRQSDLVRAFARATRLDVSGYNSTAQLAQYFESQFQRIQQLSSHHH

Prothrombin = Prothrombin (Homo sapiens, UniProt P00734); experiment: Thrombin 1536 HTS Dose Response Confirmation. [Related pubchem assays: 1046 (Thrombin 1536 HTS; hits were confirmed in this assay)]; format: functional
[4] = target: T4, Zinc finger protein mex-5 (Caenorhabditis elegans, UniProt Q9XUB2); experiment: MEX-5/TCR-2 RNA interaction inhibitors, dose response, biochemical, C. elegans, fluorescence polarization (AID 1960)
T4 sequence (Q9XUB2 whole entry): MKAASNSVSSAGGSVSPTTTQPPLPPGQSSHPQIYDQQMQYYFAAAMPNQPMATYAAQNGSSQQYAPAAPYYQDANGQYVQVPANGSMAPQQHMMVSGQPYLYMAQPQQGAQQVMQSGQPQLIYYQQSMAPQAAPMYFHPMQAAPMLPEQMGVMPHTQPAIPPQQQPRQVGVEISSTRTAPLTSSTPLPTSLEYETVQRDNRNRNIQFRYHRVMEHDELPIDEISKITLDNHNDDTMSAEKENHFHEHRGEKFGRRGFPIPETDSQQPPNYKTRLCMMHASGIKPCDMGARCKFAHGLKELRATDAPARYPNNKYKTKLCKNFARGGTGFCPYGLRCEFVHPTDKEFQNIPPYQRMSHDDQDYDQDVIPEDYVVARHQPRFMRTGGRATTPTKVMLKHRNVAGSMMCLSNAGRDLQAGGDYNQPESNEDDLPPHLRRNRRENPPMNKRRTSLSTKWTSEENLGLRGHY

[5] = NIH-3T3 fibroblast cytotoxicity, dose response, cytotoxicity control, cell-based, fluorescence, Alamar Blue, secondary assay (AID 2327); format: functional;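 further: NIH-3T3 mouse fibroblasts cultured with fluconazole at 8 µg/mL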
BJ [6] = experiment: cytotoxicity toward BJ-TERT fibroblasts, dose response, cell-based, RAS-independent, luminescence (AID 1933); format: functional; conditions: Homo sapiens
BJ [7] = experiment: cytotoxicity toward BJ-TERT-LT-ST fibroblasts, dose response, cell-based, RAS-independent, luminescence (AID 1935); format: functional; conditions: Homo sapiens;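 further: BJ fibroblasts immortalized with TERT plus LT and ST oncogenes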
[8] = cytotoxicity toward DRD oncogenic fibroblasts, dose response, cell-based, non-viral oncogenic, luminescence (AID 1934); format: functional; conditions: Homo sapiens
[9] = cytotoxicity in HEK-293T cells, dose response, cytotoxicity control for TCR NF-kB inhibitor project, luminescence, T-cell screen hits (AID 489026); format: functional, cell-based;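 further: cells exposed to compound about 14 hours before the viability readout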
BJ [10] = experiment: cells; format: functional, cell-based; conditions: Homo sapiens
[11] = C. albicans growth with fluconazole, confirmation, fluorescence, retest (AID 2467); format: functional, cell-based
[12] = A cytotoxicity screen of small molecule inhibitors of the PhoP region in Salmonella typhi identified in the primary screen. [Related pubchem assays: 1850, 1864, 1985 ]; format: functional
Nonstructural protein 1 = Nonstructural protein 1 (Influenza A virus, UniProt Q194T2); format: functional, Influenza A virus (A/California/07/2009(H1N1))
[13] = target: T5, Ubiquitin-conjugating enzyme E2 N (Homo sapiens, UniProt P61088); format: functional;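 further: Dose-response confirmation in a TR-FRET assay detecting UBC13-driven polyubiquitin chain formation, inhibition measured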
T5 sequence (P61088 whole entry): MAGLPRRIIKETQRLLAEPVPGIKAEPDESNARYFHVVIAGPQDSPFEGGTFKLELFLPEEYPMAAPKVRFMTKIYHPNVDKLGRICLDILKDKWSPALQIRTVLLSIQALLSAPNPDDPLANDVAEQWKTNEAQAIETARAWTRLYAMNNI

[14] = target: T6, DNA repair protein RAD52 homolog (Homo sapiens, UniProt P43351); format: functional, biochemical
T6 sequence (P43351 whole entry): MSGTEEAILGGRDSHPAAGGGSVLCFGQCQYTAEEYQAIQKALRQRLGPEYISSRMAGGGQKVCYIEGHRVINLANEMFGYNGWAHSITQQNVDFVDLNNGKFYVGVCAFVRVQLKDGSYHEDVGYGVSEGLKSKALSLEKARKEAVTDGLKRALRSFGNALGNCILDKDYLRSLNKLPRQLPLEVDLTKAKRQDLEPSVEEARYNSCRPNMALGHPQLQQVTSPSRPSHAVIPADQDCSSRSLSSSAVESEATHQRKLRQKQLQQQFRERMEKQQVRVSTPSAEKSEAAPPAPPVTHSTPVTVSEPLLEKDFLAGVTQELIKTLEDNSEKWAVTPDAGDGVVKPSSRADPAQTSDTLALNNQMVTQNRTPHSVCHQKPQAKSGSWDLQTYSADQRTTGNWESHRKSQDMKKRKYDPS

Cytochrome P450 3A4 = Cytochrome P450 3A4 (Homo sapiens, UniProt P08684);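 further: CYP3A4 tested as one member of a cytochrome P450 panel screen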
Sequence of Cytochrome P450 3A4 (P08684 whole entry): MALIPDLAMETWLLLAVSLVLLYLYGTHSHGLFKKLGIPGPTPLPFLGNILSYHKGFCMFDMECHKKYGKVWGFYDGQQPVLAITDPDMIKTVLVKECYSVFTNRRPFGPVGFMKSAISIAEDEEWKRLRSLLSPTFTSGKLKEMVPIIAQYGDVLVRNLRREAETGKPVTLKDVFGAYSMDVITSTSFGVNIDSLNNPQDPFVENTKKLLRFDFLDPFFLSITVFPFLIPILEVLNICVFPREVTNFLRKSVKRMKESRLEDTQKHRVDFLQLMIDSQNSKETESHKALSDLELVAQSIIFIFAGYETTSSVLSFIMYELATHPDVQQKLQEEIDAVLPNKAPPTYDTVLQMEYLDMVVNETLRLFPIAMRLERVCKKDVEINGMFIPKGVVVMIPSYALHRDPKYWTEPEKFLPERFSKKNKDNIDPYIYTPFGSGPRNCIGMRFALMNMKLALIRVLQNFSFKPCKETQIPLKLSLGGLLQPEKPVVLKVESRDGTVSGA

Sequence of Cytochrome P450 2C9 (P11712 whole entry): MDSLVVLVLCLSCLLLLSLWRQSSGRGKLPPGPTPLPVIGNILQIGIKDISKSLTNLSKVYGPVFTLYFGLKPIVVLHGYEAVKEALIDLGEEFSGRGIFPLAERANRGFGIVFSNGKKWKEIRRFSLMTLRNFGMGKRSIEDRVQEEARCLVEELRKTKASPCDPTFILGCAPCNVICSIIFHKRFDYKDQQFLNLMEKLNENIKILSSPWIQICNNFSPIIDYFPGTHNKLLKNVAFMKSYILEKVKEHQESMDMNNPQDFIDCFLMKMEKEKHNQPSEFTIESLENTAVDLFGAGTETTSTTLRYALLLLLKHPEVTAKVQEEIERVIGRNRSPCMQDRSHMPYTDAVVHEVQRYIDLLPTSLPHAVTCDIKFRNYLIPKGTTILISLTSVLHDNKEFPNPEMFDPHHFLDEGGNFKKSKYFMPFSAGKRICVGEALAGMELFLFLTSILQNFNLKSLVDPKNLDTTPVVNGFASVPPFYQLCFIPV
Sequence of Nonstructural protein 1 (Q194T2 whole entry): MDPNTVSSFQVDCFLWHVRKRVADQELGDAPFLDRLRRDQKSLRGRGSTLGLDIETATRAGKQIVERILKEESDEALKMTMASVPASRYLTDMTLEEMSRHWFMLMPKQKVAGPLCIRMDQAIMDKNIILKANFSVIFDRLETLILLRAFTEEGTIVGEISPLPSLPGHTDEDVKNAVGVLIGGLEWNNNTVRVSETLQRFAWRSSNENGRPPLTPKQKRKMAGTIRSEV

O=C(Oc1c(-c2ccccc2Cl)oc2ccccc2c1=O)c1ccc(Cl)cc1
CC50 [1]: > 40 µM (active) | EC50 [2]: > 195 µM (not active)

COc1ccc(OC[C@@H](CO)OC)cc1
AC50 (Cytochrome P450 2C9): inconclusive

O=C1NC(=O)N(CCc2ccccc2)C(=O)/C1=C/NNC(=O)c1ccncc1
IC50 (Aminopeptidase N): 38.4 µM (active) | EC50 [3]: > 300 µM (not active) | IC50 (Prothrombin): > 50 µM (not active) | EC50 [4]: > 300 µM (not active)

COc1ccc(-[n+]2c(-c3ccccc3)cc(-c3ccc(C)cc3)cc2-c2ccccc2)cc1.[O-][Cl+3]([O-])([O-])[O-]
EC50 [5]: 7.59 µM (active) | EC50 (BJ [6]): 3.39 µM (active) | EC50 (BJ [7]): 19.8 µM (active) | EC50 [8]: 10 µM (inconclusive) | IC50 [9]: > 80 µM (inactive) | EC50 (BJ [10]): 5 µM (active) | EC50 [11]: 0.037 µM (active)

COc1ccc(OC)c(C(=O)CN2C(=O)NC(C)(c3ccccc3)C2=O)c1 (stereo not drawn)
AC50 (Cytochrome P450 2C9): inconclusive

Cc1ccc(CN2C3=NCCN3c3ccccc32)cc1
EC50 [12]: > 50 µM (active)

CN1CCC(CN)(N2CCN(c3ccccc3)CC2)CC1
IC50 (Nonstructural protein 1): > 100 µM (active) | IC50 [13]: > 20 µM (inactive) | AC50 [14]: 23.1 µM (active)

Cc1c(/C=N/NC(=O)c2ccc3c(c2)OCO3)cnn1C
EC50 [12]: > 50 µM (active) | AC50 (Cytochrome P450 3A4): 22.4 µM (inconclusive)

Nc1ncnc2c1ncn2[C@@H]1CCCO1
AC50 (Cytochrome P450 2C9): inconclusive

O=C(NCC(c1ccco1)N1CCc2ccccc21)c1ccc([N+](=O)[O-])cc1 (stereo not drawn)
CC50 [1]: > 40 µM (active)
